Measured values published in EP1928842B1, “4-PHENYL-6-SUBSTITUTED-PYRIMIDINE-2-CARBONITRILE DERIVATIVES” (priority 2005, dated 2007).

Target: T1, recombinant human Cathepsin K (Homo sapiens, UniProt P43235)
T1 sequence (P43235 115-329): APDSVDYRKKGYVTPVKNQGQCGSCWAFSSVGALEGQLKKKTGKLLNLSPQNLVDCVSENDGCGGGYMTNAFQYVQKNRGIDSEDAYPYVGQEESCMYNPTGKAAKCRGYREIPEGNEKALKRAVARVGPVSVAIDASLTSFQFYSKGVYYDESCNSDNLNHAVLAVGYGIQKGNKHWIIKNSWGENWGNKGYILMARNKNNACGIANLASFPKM
Experiment: Cathepsin K activity: inhibition of recombinant human Cathepsin K (fluorogenic substrate Z-Phe-Arg-AMC)
Type: biochemical
Details: sodium acetate pH5.5, fluorescence at 10 minutes, read-out: pIC50 (negative logarithm of the IC50 concentration) for inhibition of human cathepsin K (converted)
Description: 10µl of a 1mg/l solution of activated recombinant human cathepsin K, in assay buffer, is then added to the well, yielding a final inhibitor concentration of 10µM. • Enzyme activity is determined by measuring the fluorescence of the liberated aminomethylcoumarin at […] using 390nm excitation, at 10 minutes. Percentage enzyme activity is calculated by comparison of this activity to that of a solution containing no inhibitor. Compounds are subsequently subjected to a dose response curve analysis in order to determine IC50 values for active compounds (where IC50 is the concentration of test compound causing 50 % inhibition of the enzymatic activity). Compounds of the invention typically have a pIC50 (negative logarithm of the IC50 concentration) for inhibition of human cathepsin K of more than 6, preferably more than 7 and most preferably a pIC50 of more than 8, such as for the compounds of Examples 1, 2a, 2b, 3, 5, 6, 8, 12, 14, 13, 16k, 16n, 16o, 17, 22a, 22b, 22c

IC50: < 10 nM
Structure (SMILES): CC(C)N1CCN(c2cc(-c3cccc(C(F)(F)F)c3)nc(C#N)n2)CC1 [Example 3, 4-(4-Isopropyl-piperazin-1-yl)-6-(trifluoromethyl-phenyl)-pyrimidine-2-carbonitrile]
